Results: patent US20170333393A1, “INJECTABLE ANTIOXIDANT FORMULATION FOR INTRAVENOUS USE OF SODIUM ASCORBATE IN HIGH DOSAGE, N-ACETYL CYSTEINE, AND DEFEROXAMINE; METHOD OF ADMINISTRATION AND USE FOR PREVENTING INJURY DUE TO REPERFUSION; AND KIT” (UNIVERSIDAD DE CHILE, priority 2014, published 2017)

Assays:
isolated rat hearts = test: Langendorff isolated heart model, ischemia/reperfusion; recovery of contractibility; parameters: species or system Sprague-Dawley rat; settings: 30 min regional ischemia, 60 min reperfusion; N-acetyl cysteine 36.8 mmol/L, deferoxamine 3.9 mmol/L; N=3 rats per group
Excerpt: Laboratory trials in murine model, by means of the use of the Langendorff isolated heart model, allowed to preliminarily establish the contribution of the secondary components of the solution in isolated form, in conjunction and in tri-association with sodium ascorbate on the attenuation of lethal reperfusion by means of the evaluation of the percentage of recovery of contractibility, subsequent to the reestablishment of the blood flow, […]
Sprague-Dawley adult male rats (250 to 300 g) were anesthetized with pentobarbital (80 mg/kg IP). Heparine (100 U/kg IV) was administered and the hearts were rapidly extracted and perfused with Krebs-Henseleit solution oxygenated in a Langendorff perfusion system at 37° C. […] The ventricular pressure was measured with a latex balloon inserted, in the left ventricular and connected to a pressure transductor. […]
Evaluation of the injury: The capacity was measured of both components isolated, in conjunction and in tri-association with sodium ascorbate in high dosage, in order to recover the cardiac contractibility, loss associated to the injury due to reperfusion.
For the analysis of the results parametric statistic of the continuous variables was used, expressing the position in terms of arithmetic mean and dispersion based on the standard deviation. The differences between multiple groups were analysed by means of ANOVA with Bonferroni test as Post-Hoc. […]

[1] = system: patients diagnosed with acute myocardium infarction with indication of primary angioplasty; test: PREVEC Phase II randomized, double blind, placebo controlled clinical trial; left ventricular ejection fraction by cardiac magnetic resonance; format: in vivo, human
Description: In a group of 50 patients subjected to a primary angioplasty due to acute infarction diagnosis, treated only with massive dosage of sodium ascorbate (equivalent dosage to the one used in the three component formulation), a recovery was observed that has never before been reported of the cardiac function in a medium term, only referable to an attenuation of the late effects of the injury due to reperfusion. The evaluation was carried out by means of cardiac magnetic resonance, technique considered the present gold standard for this kind of studies.
A randomized, double blind, placebo controlled clinical trial was applied to patients diagnosed with acute myocardium infarction with indication of primary angioplasty, previously enrolled.
As inclusion criteria, was defined: Individuals of any sex older than 18 years of age; Latency of admission of up to 12 hours since presenting symptoms; First myocardium infarction; Killip 1 and 2; Capacity and willingness to sign consent form.
As exclusion criteria was established: Renal or hepathic insufficiency history; Cardiac failure history (NYHA III, IV); Cardiogenic shock; Comorbility that determines a life expectancy<6 months; Participation in another investigation; Pregnancy; Glucose 6—Phosphate Dehydrogenase deficiency.
Patients were administered an oral dose of vitamin E (800 IU), followed by a sodium ascorbate infusion (320 mmol/L). The placebo group received an inert infusion of sodium chloride solution of the same osmolarity as the sodium ascorbate infusion. Serial blood samples were taken to analyse biomarkers related to myocardium, injury, oxidative stress and inflammation in order to evaluated efficiency on injury due to early reperfusion. […]
The statistical analysis of the preliminary results, was carried out using non parametric statistics, using the median as position measurement, interquartile range as dispersion measurement and the Mann-Whitney U test to determine the statistical significance. Differences between the multiple groups was analysed by means of a Kruskal-Wallis test. […]

Structure (SMILES) | improvement of recovery of contractibility regarding the control group (Placebo) (isolated rat hearts) | early cardiac function (left ventricular ejection fraction), treated versus placebo ([1]; day 6 after primary angioplasty, sodium ascorbate infusion 320 mmol/L after oral vitamin E 800 IU) | change in left ventricular ejection (difference between day 84 and day 6), treated versus placebo ([1]; difference of values 84 and six days after angioplasty, p<0.05) | left ventricular ejection fraction, higher in treated patients versus placebo ([1]; three months (day 84) after primary angioplasty, sodium ascorbate infusion 320 mmol/L after oral vitamin E 800 IU, p<0.05)
CC(=O)N[C@@H](CS)C(=O)O [N-acetyl cysteine] | 189% |  |  | 
CC(=O)N(O)CCCCCNC(=O)CCC(=O)N(O)CCCCCNC(=O)CCC(=O)N(O)CCCCCN [deferoxamine] | 113% |  |  | 
O=C1O[C@H]([C@@H](O)CO)C([O-])=C1O.[Na+] [sodium ascorbate] |  | did not show any difference | significantly higher | 33%
